Patent US9630961B2, “Arginine methyltransferase inhibitors and uses thereof” (Epizyme, Inc., priority 2013, dated 2017)

Molecular target: T1, PRMT1 (Homo sapiens, UniProt Q99873)
T1 construct: GST-tagged PRMT1; made in house; host or cells: High Five insect cells (baculovirus)
Experiment: PRMT1 Biochemical Assay (3H-SAM Flashplate, peptide substrate)
Settings: 30 min preincubation, room temperature
Source text: S-adenosylmethionine (SAM), S-adenosylhomocysteine (SAH), bicine, Tween20, dimethylsulfoxide (DMSO), bovine skin gelatin (BSG), and Tris(2-carboxyethyl)phosphine hydrochloride solution (TCEP) were purchased from Sigma-Aldrich at the highest level of purity possible. ^3H-SAM was purchase from American Radiolabeled Chemicals with a specific activity of 80 Ci/mmol. 384-well streptavidin Flashplates were purchased from PerkinElmer.
Peptide representative of human histone H4 residues 36-50 was synthesized with an N-terminal linker-affinity tag motif and a C-terminal amide cap by 21st Century Biochemicals. The peptide was purified by high-performance liquid chromatography (HPLC) to greater than 95% purity and confirmed by liquid chromatography mass spectrometry (LC-MS). The sequence was Biot-Ahx-[…]-amide (SEQ ID NO.: 1).
Full-length human PRMT1 isoform 1 (NM_001536.5) transcript clone was amplified from an HEK 293 cDNA library, incorporating flanking 5′ sequence encoding a FLAG tag ([…]) (SEQ ID NO.:2) fused directly to Met 1 of PRMT1. The amplified gene was subcloned into pFastBacI (Life Technologies) modified to encode an N-terminal GST tag and a TEV cleavage sequence ([…] […] […] […]) (SEQ ID NO.:3) fused to Asp of the Flag tag of PRMT1.
Recombinant baculovirus were generated according to Bac-to-Bac kit instructions (Life Technologies). Protein over-expression was accomplished by infecting exponentially growing High Five insect cell culture at 1.5×10^6 cell/ml with 1:100 ratio of virus. Infections were carried out at 27° C. for 48 hours, harvested by centrifugation, and stored at −80° C. for purification.
General Procedure for PRMT1 Enzyme Assays on Peptide Substrates.
The assays were all performed in a buffer consisting of 20 mM Bicine (pH=7.6), 1 mM TCEP, 0.005% BSG, and 0.002% Tween 20, prepared on the day of use. Compounds in 100% DMSO (1 ul) were spotted into a polypropylene 384-well V-bottom plates (Greiner) using a Platemate Plus outfitted with a 384-channel head (Thermo Scientific). DMSO (1 ul) was added to Columns 11, 12, 23, 24, rows A-H for the maximum signal control and 1 ul of SAH, a known product and inhibitor of PRMT1, was added to columns 11, 12, 23, 24, rows I-P for the minimum signal control. A cocktail (40 ul) containing the PRMT1 enzyme was added by Multidrop Combi (Thermo-Fisher). The compounds were allowed to incubate with PRMT1 for 30 min at room temperature, then a cocktail (10 ul) containing SAM and peptide was added to initiate the reaction (final volume=51 ul). The final concentrations of the components were as follows: PRMT1 was 0.5 nM, ^3H-SAM was 200 nM, non-radiolabeled SAM was 1.5 uM, peptide was 20 nM, SAH in the minimum signal control wells was 1 mM, and the DMSO concentration was 2%. The assays were stopped by the addition of non-radiolabeled SAM (10 ul) to a final concentration of 300 uM, which dilutes the ^3H-SAM to a level where its incorporation into the peptide substrate is no longer detectable. 50 ul of the reaction in the 384-well polypropylene plate was then transferred to a 384-well Flashplate and the biotinylated peptides were allowed to bind to the streptavidin surface for at least 1 hour before being washed once with 0.1% Tween20 in a Biotek ELx405 plate washer. The plates were then read in a PerkinElmer TopCount plate reader to measure the quantity of ^3H-labeled peptide bound to the Flashplate surface, measured as disintegrations per minute (dpm) or alternatively, referred to as counts per minute (cpm).
Where dpm=disintegrations per minute, cmpd=signal in assay well, and min and max are the respective minimum and maximum signal controls.
Where top and bottom are the normally allowed to float, but may be fixed at 100 or 0 respectively in a 3-parameter fit. The Hill Coefficient normally allowed to float but may also be fixed at 1 in a 3-parameter fit. Y is the % inhibition and X is the compound concentration.

T1 sequence (Q99873 with tags, fused parts or gaps): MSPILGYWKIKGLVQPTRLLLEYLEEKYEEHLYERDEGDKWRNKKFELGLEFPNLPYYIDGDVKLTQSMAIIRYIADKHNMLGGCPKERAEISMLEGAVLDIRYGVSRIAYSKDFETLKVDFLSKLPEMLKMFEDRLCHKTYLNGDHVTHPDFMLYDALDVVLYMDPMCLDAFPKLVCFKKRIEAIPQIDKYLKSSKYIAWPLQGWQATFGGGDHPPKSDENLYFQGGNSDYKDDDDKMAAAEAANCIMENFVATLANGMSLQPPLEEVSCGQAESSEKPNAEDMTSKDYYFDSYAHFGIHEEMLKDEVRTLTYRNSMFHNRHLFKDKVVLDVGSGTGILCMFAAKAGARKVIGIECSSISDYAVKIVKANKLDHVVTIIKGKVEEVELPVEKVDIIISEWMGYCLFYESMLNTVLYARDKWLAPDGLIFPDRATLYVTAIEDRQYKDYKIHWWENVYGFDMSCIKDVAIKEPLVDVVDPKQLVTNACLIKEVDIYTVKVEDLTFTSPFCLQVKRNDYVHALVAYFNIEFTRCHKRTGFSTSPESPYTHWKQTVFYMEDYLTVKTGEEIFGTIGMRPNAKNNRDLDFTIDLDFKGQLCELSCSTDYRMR

SMILES | IC50 [nM]
CN(CCN)Cc1c[nH]nc1-c1ccsc1 [Compound 3] | 101 to 1000
CN(CCN)Cc1c[nH]nc1-c1cncnc1 [Compound 4] | 101 to 1000
CN(CCN)Cc1c[nH]nc1-c1cccs1 [Compound 5] | 101 to 1000
CN(CCN)Cc1c[nH]nc1-c1ccco1 [Compound 6] | 101 to 1000
CN(CCN)Cc1c[nH]nc1-c1ccoc1 [Compound 7] | 101 to 1000
CN(CCN)Cc1c[nH]nc1-c1cnn(C)c1 [Compound 8] | 101 to 1000
CN(CCN)Cc1c[nH]nc1-c1ccc2scnc2c1 [Compound 9] | ≤ 100
Cc1noc(C)c1-c1n[nH]cc1CN(C)CCN [Compound 10] | ≥ 10000
COc1ncc(-c2n[nH]cc2CN(C)CCN)cn1 [Compound 11] | 101 to 1000
CN(CCN)Cc1c[nH]nc1-c1cn[nH]c1 [Compound 12] | 101 to 1000
CN(CCN)Cc1c[nH]nc1-c1cnc2[nH]ccc2c1 [Compound 13] | ≤ 100
CN(CCN)Cc1c[nH]nc1-c1cc[nH]n1 [Compound 14] | 1010 to 3000
CN(CCN)Cc1c[nH]nc1-c1ccnn1C [Compound 15] | 1010 to 3000
CCn1cc(-c2n[nH]cc2CN(C)CCN)cn1 [Compound 16] | ≤ 100
CN(CCN)Cc1c[nH]nc1-c1cnn(-c2ccccc2)c1 [Compound 17] | ≤ 100
CN(CCN)Cc1c[nH]nc1-c1cnn(CCO)c1 [Compound 18] | 101 to 1000
CN(CCN)Cc1c[nH]nc1-c1ccc2cnn(C)c2c1 [Compound 19, N^1-methyl-N^1-((3-(1-methyl-1H-indazol-6-yl)-1H-pyrazol-4-yl)methyl)ethane-1,2-diamine] | ≤ 100
CN(CCN)Cc1c[nH]nc1-c1ccc2ncnn2c1 [Compound 20] | ≤ 100
CN(CCN)Cc1c[nH]nc1-c1ccc2nccn2c1 [Compound 21, N^1-((3-(imidazo[1,2-a]pyridin-6-yl)-1H-pyrazol-4-yl)methyl)-N^1-methylethane-1,2-diamine] | ≤ 100
CC(C)n1cc(-c2n[nH]cc2CN(C)CCN)cn1 [Compound 22] | ≤ 100
CC(C)Cn1cc(-c2n[nH]cc2CN(C)CCN)cn1 [Compound 23, N^1-((2′-isobutyl-3,4′-bi(1H-pyrazol)-4-yl)methyl)-N^1-methylethane-1,2-diamine] | ≤ 100
CN(CCN)Cc1c[nH]nc1-c1cnn(Cc2ccccc2)c1 [Compound 24, N^1-((1′-benzyl-3,4′-bi(1H-pyrazol)-4-yl)methyl)-N^1-methylethane-1,2-diamine] | ≤ 100
Cc1n[nH]c(C)c1-c1n[nH]cc1CN(C)CCN [Compound 25] | ≥ 10000
CN(CCN)Cc1c[nH]nc1-c1ccc2[nH]ncc2c1 [Compound 27, N^1-((3-(1H-indazol-5-yl)-1H-pyrazol-4-yl)methyl)-N^1-methylethane-1,2-diamine] | ≤ 100
CN(CCN)Cc1c[nH]nc1-c1cnc(C2CC2)nc1 [Compound 28] | 101 to 1000
CN(CCN)Cc1c[nH]nc1-c1ccc[nH]1 [Compound 29] | 1010 to 3000
CN(CCN)Cc1c[nH]nc1-c1cccc2[nH]ncc12 [Compound 30] | 101 to 1000
